Test results reported in ChEMBL document CHEMBL1949563, “1,3,4-Thiadiazole derivatives as selective inhibitors of iNOS versus nNOS: Synthesis and structure-activity dependence” (Eur J Med Chem, 2012).

Key:
[1] = target: T1, Nitric oxide synthase, inducible (Homo sapiens, UniProt P35228); experiment: Inhibition of iNOS assessed as conversion of L-[3H]arginine to L-[3H]-citrulline at 50 uM after 30 mins by scintillation counting
[2] = target: Nitric oxide synthase 1 (Homo sapiens) (UniProt P29475); experiment: Inhibition of nNOS assessed as conversion of L-[3H]arginine to L-[3H]-citrulline at 50 uM after 30 mins by scintillation counting
[3] = target: T1, Nitric oxide synthase, inducible; experiment: Inhibition of iNOS assessed as conversion of L-[3H]arginine to L-[3H]-citrulline after 30 mins by scintillation counting

Nitric oxide synthase 1 (Homo sapiens), sequence (P29475 whole entry): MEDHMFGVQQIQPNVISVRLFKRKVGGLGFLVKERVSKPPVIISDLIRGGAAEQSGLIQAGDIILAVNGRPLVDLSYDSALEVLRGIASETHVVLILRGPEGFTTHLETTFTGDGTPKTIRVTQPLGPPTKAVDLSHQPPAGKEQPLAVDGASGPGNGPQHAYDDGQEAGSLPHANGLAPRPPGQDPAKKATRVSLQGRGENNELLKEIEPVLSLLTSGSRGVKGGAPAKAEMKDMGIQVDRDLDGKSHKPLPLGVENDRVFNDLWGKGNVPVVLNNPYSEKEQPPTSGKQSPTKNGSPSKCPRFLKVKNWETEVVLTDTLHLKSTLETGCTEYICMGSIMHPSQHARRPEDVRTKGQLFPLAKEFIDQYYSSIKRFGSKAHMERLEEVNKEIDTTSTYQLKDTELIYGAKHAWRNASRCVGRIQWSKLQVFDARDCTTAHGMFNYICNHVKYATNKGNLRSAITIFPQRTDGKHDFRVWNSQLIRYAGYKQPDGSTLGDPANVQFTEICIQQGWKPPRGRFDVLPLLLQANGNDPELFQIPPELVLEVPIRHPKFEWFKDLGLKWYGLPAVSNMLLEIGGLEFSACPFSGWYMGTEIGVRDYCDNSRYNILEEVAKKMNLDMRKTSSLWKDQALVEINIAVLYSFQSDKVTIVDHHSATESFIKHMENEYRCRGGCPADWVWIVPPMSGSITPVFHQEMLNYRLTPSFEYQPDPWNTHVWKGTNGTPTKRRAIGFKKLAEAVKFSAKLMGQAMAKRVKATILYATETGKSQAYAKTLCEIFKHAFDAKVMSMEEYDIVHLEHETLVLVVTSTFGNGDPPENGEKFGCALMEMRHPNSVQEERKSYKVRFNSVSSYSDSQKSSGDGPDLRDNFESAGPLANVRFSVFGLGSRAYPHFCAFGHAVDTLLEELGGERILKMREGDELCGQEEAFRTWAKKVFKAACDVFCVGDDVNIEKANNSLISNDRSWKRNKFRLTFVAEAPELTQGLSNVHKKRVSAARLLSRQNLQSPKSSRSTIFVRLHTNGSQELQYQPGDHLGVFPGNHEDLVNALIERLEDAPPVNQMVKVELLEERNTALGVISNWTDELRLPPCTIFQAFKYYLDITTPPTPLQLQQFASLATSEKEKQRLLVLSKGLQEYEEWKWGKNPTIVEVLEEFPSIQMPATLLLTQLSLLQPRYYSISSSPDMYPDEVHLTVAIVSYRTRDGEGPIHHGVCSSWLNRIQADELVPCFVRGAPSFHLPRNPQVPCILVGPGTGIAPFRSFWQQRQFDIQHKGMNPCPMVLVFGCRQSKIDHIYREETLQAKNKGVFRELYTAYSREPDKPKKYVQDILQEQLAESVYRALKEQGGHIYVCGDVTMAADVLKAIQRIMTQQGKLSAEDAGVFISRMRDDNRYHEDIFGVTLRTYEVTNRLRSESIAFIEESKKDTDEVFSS
T1 sequence (P35228 whole entry): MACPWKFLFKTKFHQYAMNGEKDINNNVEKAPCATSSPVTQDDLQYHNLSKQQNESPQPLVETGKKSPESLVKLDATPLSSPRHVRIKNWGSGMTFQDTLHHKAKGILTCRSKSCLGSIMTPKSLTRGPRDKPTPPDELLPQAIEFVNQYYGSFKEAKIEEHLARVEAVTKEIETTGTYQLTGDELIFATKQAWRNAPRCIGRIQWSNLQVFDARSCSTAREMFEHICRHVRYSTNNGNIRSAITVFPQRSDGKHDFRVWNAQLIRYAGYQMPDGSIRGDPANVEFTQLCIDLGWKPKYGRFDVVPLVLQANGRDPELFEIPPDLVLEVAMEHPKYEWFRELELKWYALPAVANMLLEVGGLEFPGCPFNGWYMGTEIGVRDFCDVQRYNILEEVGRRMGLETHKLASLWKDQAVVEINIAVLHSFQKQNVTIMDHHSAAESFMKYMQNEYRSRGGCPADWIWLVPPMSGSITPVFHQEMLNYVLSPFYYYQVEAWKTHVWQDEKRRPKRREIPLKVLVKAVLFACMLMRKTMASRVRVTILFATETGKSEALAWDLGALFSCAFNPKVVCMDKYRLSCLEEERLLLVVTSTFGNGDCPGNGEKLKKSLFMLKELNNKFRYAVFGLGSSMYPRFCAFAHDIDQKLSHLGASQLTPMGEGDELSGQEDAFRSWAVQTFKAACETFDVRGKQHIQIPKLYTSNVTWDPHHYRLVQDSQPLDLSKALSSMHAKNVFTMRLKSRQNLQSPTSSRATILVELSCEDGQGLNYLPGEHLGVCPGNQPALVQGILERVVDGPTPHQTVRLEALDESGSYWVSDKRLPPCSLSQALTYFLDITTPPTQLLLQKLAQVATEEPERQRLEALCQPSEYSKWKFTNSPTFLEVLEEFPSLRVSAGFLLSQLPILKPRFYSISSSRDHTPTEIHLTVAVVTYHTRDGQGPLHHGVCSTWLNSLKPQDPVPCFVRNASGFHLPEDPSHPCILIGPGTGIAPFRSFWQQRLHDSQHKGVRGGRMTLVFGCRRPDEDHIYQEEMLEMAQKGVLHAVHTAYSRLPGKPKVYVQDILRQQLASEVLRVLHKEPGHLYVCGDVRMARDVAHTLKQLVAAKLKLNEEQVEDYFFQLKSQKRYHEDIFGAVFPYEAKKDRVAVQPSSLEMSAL

Row | SMILES | inhibition [1] [%] | inhibition [2] [%] | IC50 [3] [µM]
1 | CCC(=O)N1N=C(c2ccccc2N)SC1(C)C | 19.2 | 24.2 | –
2 | CC(=O)N1N=C(c2ccccc2N)SC1(C)C | 22.9 | 13.3 | –
3 | CC1(C)SC(c2ccccc2N)=NN1C(=O)C1CCC1 | 46.9 | 2.98 | –
4 | CCCC(=O)N1N=C(c2cc(OC)ccc2N)SC1(C)C | 91.1 | 9.58 | 29.6
5 | CC1(C)SC(c2ccccc2N)=NN1C(=O)c1ccccc1 | 39.8 | 42.4 | –
6 | CC1(C)SC(c2ccccc2N)=NN1C(=O)C1CCCC1 | 42.1 | 9.34 | –
7 | CCCCC(=O)N1N=C(c2ccccc2N)SC1(C)C | 39 | 38 | –
8 | CCC(=O)N1N=C(c2cc(OC)ccc2N)SC1(C)C | 73 | 8.85 | –
9 | COc1ccc(N)c(C2=NN(C(=O)C3CCCCC3)C(C)(C)S2)c1 | 100 | 11.3 | 21.9
10 | COc1ccc(N)c(C2=NN(C(=O)c3ccccc3)C(C)(C)S2)c1 | 0 | 17.2 | –
11 | COc1ccc(N)c(C2=NN(C(=O)C3CCCC3)C(C)(C)S2)c1 | 65 | 17.4 | –
12 | CC1(C)SC(c2cc(Cl)ccc2N)=NN1C(=O)C1CC1 | 23.2 | 21.9 | –
13 | CC1(C)SC(c2ccccc2N)=NN1C(=O)C1CCCCC1 | 28 | 6.8 | –
14 | CCC(=O)N1N=C(c2cc(Cl)ccc2N)SC1(C)C | 1.07 | 18.3 | –
15 | CCCCC(=O)N1N=C(c2cc(OC)ccc2N)SC1(C)C | 101 | 14.6 | –
16 | CCCC(=O)N1N=C(c2cc(Cl)ccc2N)SC1(C)C | 66.2 | 27.7 | –
17 | CC(=O)N1N=C(c2cc(Cl)ccc2N)SC1(C)C | 72.8 | 22.5 | –
18 | CC1(C)SC(c2cc(Cl)ccc2N)=NN1C(=O)C1CCC1 | -4.65 | 4.56 | –

Further lines, results first:

Row | inhibition [1] [%] | inhibition [2] [%] | IC50 [3] [µM] | SMILES
19 | 21.3 | 8.37 | – | CC1(C)SC(c2cc(Cl)ccc2N)=NN1C(=O)C1CCCC1
20 | 77.1 | 43.3 | – | COc1ccc(N)c(C2=NN(C(C)=O)C(C)(C)S2)c1
21 | 20.8 | 23.6 | – | CC1(C)SC(c2cc(Cl)ccc2N)=NN1C(=O)c1ccccc1
22 | 7.61 | 23.1 | – | CC1(C)SC(c2cc(Cl)ccc2N)=NN1C(=O)C1CCCCC1
23 | 12.6 | 38 | – | CCCCC(=O)N1N=C(c2cc(Cl)ccc2N)SC1(C)C
24 | 90 | 9.95 | 41 | COc1ccc(N)c(C2=NN(C(=O)C3CC3)C(C)(C)S2)c1
25 | 57.8 | 13.7 | – | COc1ccc(N)c(C2=NN(C(=O)C3CCC3)C(C)(C)S2)c1
26 | 93 | 7.32 | 34 | CC1(C)SC(c2ccccc2N)=NN1C(=O)C1CC1
27 | 35.2 | 17.5 | – | CCCC(=O)N1N=C(c2ccccc2N)SC1(C)C
